What was measured:
Caco-2 cells = assay: Cell cycle distribution by propidium iodide staining and flow cytometry; type: cell-based, human; details: dye 12 and 5-FU 10 µM 72 h, sorbitol 600 mM 24 h, versus untreated cells
Experimental: The apoptosis occurrence and influence of the dye 12 on the cell cycle were evaluated using propidium iodide (PI) staining and flow cytometry, as described by Riccardi and Nicolleti. After the near confluency of the culture, trypsinisation, and counting, Caco-2 cells were seeded (2 mL, 3 × 10^4 cells/mL) in 6-well plates. After 48 h of adherence, the cells were treated with the test solutions (3 mL and 5 mL for negative control) and incubated for 72 h. Untreated cells were used as the negative control, and sorbitol and 5-FU [56] were used as positive controls for the apoptosis and cell cycle distribution studies, respectively. After incubation, the supernatant was collected and the cells were washed with PBS and combined with the cells harvested using the trypsin treatment. This cell suspension was maintained on ice and centrifugated, and then the pellet was resuspended in 0.5 mL of PBS. The cells were fixed by adding 4.5 mL of 70% ethanol cooled at −20 °C and were stored at the same temperature. For the cytometry analysis, PBS was added to the fixed cells before centrifugation, and then the ethanolic supernatant was removed. The pellet was resuspended in 0.5 mL of PBS and 0.5 mL of DNA extraction (192 mL of 0.2 M sodium phosphate and 8 mL of […], pH 7.8) was added. After incubation for 5 min, the cells were centrifuged, the supernatant was removed, and the pellet resuspended in 0.3 mL of staining solution (20 µg/mL of PI and 0.2 mg/mL of DNase-free RNase in PBS). Using a FACSCalibur flow cytometer and the 488 nm laser line, a minimum of 20,000 events were recorded. Acquisition and apoptosis analysis was performed using BD CellQuestTM Pro 4.0.2 Software. Cell cycle analysis was performed with ModFit LT 5.0.9 software. To exclude debris and necrotic cells, events with a lower diameter (forward scatter; FCS) and reduced PI fluorescence (FL3) than the hypodiploid apoptotic cells were eliminated. Two independent experiments were performed.

[1] = tested on: PC-3 prostate adenocarcinoma cell line; assay: MTT cell viability assay, PC-3; type: cell-based, human
Experimental: (§1) Caco-2, MCF-7, PC-3, and NHDF cell lines were obtained from the American Type Culture Collection (ATCC) and maintained in 75 cm^2 culture flasks in a humidified atmosphere at 37 °C with 5% carbon dioxide using a LEEC Culture Safe Precision CO2 Incubator. The culture media was renewed every two to three days. The NHDF cell line was cultured in Roswell Park Memorial Institute (RPMI) medium supplemented with 10% of inactivated fetal bovine serum (FBS), 2 mM of L-glutamine, 10 mM of 4-(2-hydroxyethyl)-1-piperazineethanesulfonic acid (HEPES), 1 mM of sodium pyruvate, and 1% of antibiotic/antimycotic mixture (Ab; 10,000 U/mL of penicillin G, […] of streptomycin, and 25 µg/mL of amphotericin B). The PC-3 cell line was also cultured in RPMI 1640 medium supplemented with 10% inactivated FBS and 1% of an antibiotic mixture (Sp; 10,000 U/mL of penicillin G and […] of streptomycin). The Caco-2 and MCF-7 cell lines were grown in Dulbecco’s Modified Eagle Medium (DMEM). Caco-2 was supplemented with 20% of inactivated FBS and 1% of Sp. On the other hand, the MCF-7 medium was complemented with 10% of inactivated FBS and 1% of Ab. All manipulations were performed in a Labculture Class II A2 Biological Safety Cabinet.
(§2) After the near confluency of cultures, cells were detached with a solution of 0.125 g/L trypsin and 0.02 g/L ethylenediaminetetracetic acid (EDTA), counted using the trypan blue method, resuspended, and seeded in 96-well culture plates (100 µL, 2 × 10^4 cells/mL). Following 48 h of adherence, cells were treated with the test solutions and incubated for 72 h. This incubation, as well as the solution manipulations, were performed in an environment protected from light. After the incubation, the medium was replaced with a fresh incomplete culture medium (without FBS and Ab or Sp) and MTT solution (5 mg/mL in phosphate buffer saline (PBS)). After additional incubation for 4 h, the MTT medium was removed, formazan crystals were dissolved in DMSO, and the optical density of each well was measured at 570 nm using a microplate spectrophotometer Bio-Rad xMark. Untreated cells were used as a negative control and 5-FU as the positive control. The results were expressed as the relative cell proliferation relative to the negative control cells. […] To determine the IC50 values, Caco-2, MCF-7, PC-3, and NHDF cells were exposed to increasing concentrations between 0.001 and 100 μM.

[2] = Photostability evaluation in PBS (absorbance decay at 376 nm); type: physicochemical; details: 10 µM in PBS
Experimental: The photostability of the dye 12 was evaluated using a concentration of 10 µM prepared from the dilution of 10 mM DMSO stock solution in PBS. In a 96-well plate, 100 µL of dye solution was added, irradiated in the same way as that previously described for photocytotoxicity evaluation for 120 min, and spectrophotometric readings were taken over this period at the dye 12’s maximum absorption wavelength (376 nm). Two independent experiments were performed in quadruplicate. The absorbance was normalised to simplify the analysis.

[3] = tested on: normal human dermal fibroblasts (NHDF); assay: MTT cell viability assay, NHDF; type: cell-based; details: Homo sapiens, NHDF, 72 h, 72 h of incubation, MTT, protected from light
Experimental: as §1, §2

[4] = MTT cell viability assay, NHDF; type: cell-based, human; details: human, normal human dermal fibroblasts (NHDF), single concentration of 10 µM, 72 h, mean ± SD; read-out: cell viability percentage in relation with control, NHDF
Experimental: as §1, §2

IC50 ([1]; Homo sapiens, 72 h of incubation, MTT, protected from light): 4.53 µM
decomposition (decrease in absorbance at 376 nm) ([2]; after 30 min of irradiation): approximately 4%
decomposition (decrease in absorbance at 376 nm) ([2]; after 120 min of irradiation): ~5%
SMILES: CN1C(=Cc2oc3ccccc3[n+]2C)Oc2ccccc21.Cc1ccc(S(=O)(=O)[O-])cc1 [Dye 12, 3-Methyl-2-((3-methylbenzo[d]oxazol-2(3H)-ylidene)methyl)benzo[d]oxazol-3-ium 4-methylbenzenesulfonate]
effect on cell cycle distribution (Caco-2 cells): notorious increase in the number of cells in the G0/G1 phase
viability at 10 µM ([1]; Homo sapiens, 72 h, single concentration of 10 µM, 72 h, mean ± SD, read-out: cell viability percentage in relation with control, PC-3): 9.33 ± 4.28%
SI PC-3 (selectivity index, cancer versus NHDF) ([1]; PC-3 versus NHDF, 72 h): 3.1
IC50 [3]: 14 µM
viability at 72 h, 10 µM [4]: 41 ± 0.82%

From publication PMC9503608, “An Insight into Symmetrical Cyanine Dyes as Promising Selective Antiproliferative Agents in Caco-2 Colorectal Cancer Cells” (Molecules, 2022)
